Molecules are shown by their SMILES.

One data set deals with fouling organisms. Description: Field test of coated PVC panels immersed in seawater. The settings on record: PCL-PU coating. The class given is in vivo. On the procedure:
(§1) The polymer/antifoulant coatings in subject invention were prepared using the solution casting method described by Ding et al. 2018. The coating was prepared by dissolving poly(ε-caprolactone) based polyurethane (PCL-PU) and BOC-butenolide, in different proportions (i.e. 95 wt % polymer and 5 wt % antifoulant for 5% antifoulant coating), in xylene with vigorous stirring until all solids have dissolved to form a uniform solution. The solution was applied onto the surface of the panels, either epoxy panel (25 mm×75 mm) for release rate determination or PVC panels (53 mm×125 mm) for field test, and the panels were then placed under room temperature for all solvent to evaporate and form a continuous coating.
The field tests were conducted at a fish farm in Yung Shue O, Hong Kong (114°21′E, 22°24′N) from January to March 2018. PVC panels (53 mm×125 mm) covered with coatings were immersed in seawater at a depth of 1 m from surface. The panels were retrieved once every month to be washed gently with seawater to remove dirt and photographed before being placed back in the sea. The antifouling potential of different panels was compared to determine the efficiency of the coatings. […] The percentage of area covered by foulers was calculated from the ratio of total fouling area to the panel area in which the area was highlighted by threshold function in ImageJ. […]

Another data set relates to Hydroides elegans. The experiment in a line: Anti-larval settlement bioassay of H. elegans larvae (settlement and toxic effects). Format: in vivo. The procedure: Adult H. elegans colonies were collected from a fish farm at Yung Shue O, Hong Kong (22°24′N, 114°21′E) from March to April 2019. The adults were kept in a water tank with running seawater at the Coastal Marine Laboratory (the Hong Kong University of Science and Technology) for no more than 3 days before experimental use. The larvae were collected according to the methods described by Qian and Pechenik (1998). The tube of the adults was gently cracked with forceps to release the gametes. Oocytes were then mixed with the sperm and transferred to a new container with 500 mL FSW for fertilization. Larvae were reared on microalga Isochrysis galbana (Tahitian strain) after hatching. The seawater culture medium was replaced with fresh FSW and algae every day, and the trochophore-stage larvae reached the competent stage after 5 d of incubation at around 25° C.
The test compounds were dissolved with a small amount of DMSO. The test compounds were used at six different concentrations with a 2-fold serial dilution from 100 ppm to 3.125 ppm. The same amount of DMSO was used as the negative control for all testing concentrations. Approximately 10±2 individuals of H. elegans larvae were put into each well of a 24-well polystyrene culture plate that contained 2 mL of FSW with different concentrations of test solution. Approximately 10^−4 molarity of 3-isobutyl-1-methylxanthine was added into each well as an inducer to induce the settlement of H. elegans larvae (Xu et al., 2010). The plates were then incubated at 25° C. in darkness. After 24 h, the number of settled and swimming larvae were counted using Leica MZ6 microscope, and possible toxic effects were also noted.

A further data set has as its system Balanus amphitrite. The experiment in a line: Anti-larval settlement bioassay of barnacle cyprids (settlement and toxic effects). Format: in vivo. The following applies: for settlement rate: cyprids. On the procedure:
Adult A. amphitrite colonies were collected from Tso Wo Hang Pier (22°23′32.1″N 114°17′18.7″E), Hong Kong, from April to June 2018. The adults were kept in a water tank with running seawater at the Coastal Marine Laboratory (the Hong Kong University of Science and Technology) for no more than a week before experimental use. Adults were induced under light sources for 1 h to hatch and the larvae were obtained using the method described previously by Harder et al. (2001), which is hereby incorporated by reference in its entirety. The nauplii larvae newly released from the adults were reared on diatom Chaetoceros gracilis Schütt. The seawater culture medium was replaced with fresh FSW and algae every day, and the nauplii reached the competent stage, known as cyprid, after 4 d of incubation at around 28° C.
The test compounds were dissolved with a small amount of DMSO. The test compounds were used in six concentrations from 100 ppm to 3.125 ppm with 2-fold serial dilution. The same amount of DMSO was used as the negative control for all testing concentrations. Approximately 20±2 individual A. amphitrite cyprids were placed into each well of the 24-well polystyrene culture plate containing 2 mL of FSW and were subjected to different treatments. For all treatments and controls, three replicates were performed. The plates were then incubated at 25° C. in darkness. After 48 h, the number of settled and swimming larvae were counted using Leica MZ6 microscope, and possible toxic effects were also noted.

A short description of data set [1]: Antifoulant release rate from PCL-PU coatings in artificial seawater (HPLC). The class given is physicochemical. The procedure: as §1
The release rate of BOC-butenolide was determined by HPLC for quantification. The polymer/antifoulant coatings were prepared on an epoxy panel (25 mm×75 mm). The coated panels were then put into ASW. At certain time points (day 1, 8, 15, 22, 29, 50, 71, 92 after immersion onto ASW), the panels were transferred to individual containers with 100 mL of fresh ASW. […]

Data set [2] is described as follows: Stability of BOC-butenolide. The class given is physicochemical. The following applies: compared to butenolide. The procedure:
The stability of BOC-butenolide was measured by the concentration changes of BOC-butenolide in ASW throughout 3 months. The starting nominal concentration of BOC-butenolide was 200 ppm. At every time point, 5 mL of the solution was drawn and mixed with 10 mL dichloromethane (DCM). The DCM fraction with the analyte was dried under nitrogen gas, redissolved reconcentrated in 1 mL of methanol and subjected to above HPLC analysis.

Turning to `CC(C)(C)OC(=O)NCCCCCC1C=CC(=O)O1` (stereo not shown) [BOC-butenolide, Tert-butyl (5-(5-oxo-2,5-dihydrofuran-2yl)pentyl)carbamate], the “AF ability to resist the attachment of the fouling organisms” value with fouling organisms was “relatively good AF ability”. For the same molecule, the settlement rate result in the data set with Hydroides elegans (3.125 ppm, 24 h) is recorded as “up to 80%”; with Hydroides elegans (25 ppm, 24 h, significant difference with control), “around 20%”; in the data set on Balanus amphitrite (3.125 ppm, 48 h), “around 70%”; in the data set with Balanus amphitrite (25 ppm, 48 h) it was “around 3%”. Moreover, the “toxicity (larval death rate)” value is “did not show any toxicity” in the data set with Hydroides elegans (25 ppm and below); “did not show any toxicity” with Balanus amphitrite (25 ppm and below). In addition, the larval settlement result in the data set on Hydroides elegans (50 and 100 ppm, 24 h) is listed as “no larval settlement”. The death entry in the data set with Hydroides elegans (50 ppm) is recorded as “around 10%”. Besides, the “attachment of barnacle cyprids” value in the data set on Balanus amphitrite (50 to 100 ppm, 48 h) was “inhibits the attachment”. Also, in data set [1] (10 wt % samples in PCL-PU coating), the initial release rate was found to be 150 μg cm^−2 day^−1. The “time the coating can still release BOC-butenolide” value in data set [1] (PCL-PU coating) is listed as “at least 2 months”. Besides, the stability entry in data set [2] is “increased”.

The values above are taken from patent publication US12082584B2, “BOC-butenolide, an antifouling compound that has potent ability to inhibit the settlement of marine invertebrate larvae” (The Hong Kong University of Science and Technology, priority 2021, dated 2024).
